# According to patent US20190112580A1, “METHODS FOR TREATING CO[…] AND RELATED CULTURED CELLS” (priority 2017, published 2019):
# What was measured:
# [1] = test system: satellite cell-derived myoblasts
# Experimental: Myoblasts were grown in the high-serum medium until reaching a 60-70% confluence by visual inspection in 12-well plate culture dishes.
# In a first set of wells, the myoblast cell preparations were placed in a high-serum medium until about 70% confluence was reached. […] These myoblast cell preparations were then switched to a low-serum medium (as described in Example 1) for four days to promote fusion and myotube formation.
# In a second set of wells, the myoblast cell preparations were placed in a high-serum medium until about 70% confluence was reached. Then, the myoblast cell preparations were exposed to 5 μM of 5-azacytidine in the high-serum medium for 6 hours. These myoblast cell preparations were finally switched to a low-serum medium (as described in Example 1) for 4 days to promote fusion and myotube formation.
# In a third set of wells, the myoblast cell preparations were placed in a high-serum medium until about 70% confluence was reached. These myoblast cell preparations were then exposed to 5 μM of 5-azacytidine in the high-serum medium for 24 hours. These myoblast cell preparations were finally switched to a low-serum medium (as described in Example 1) for 4 days to promote fusion and myotube formation.
# In a fourth set of wells, the myoblast cell preparations were placed in a high-serum medium until about 70% confluence was reached.
# In a fifth set of wells, the myoblast cell preparations were placed in a high-serum medium until about 70% confluence was reached. […] These same myoblast cell preparations were finally switched to a low-serum medium for 4 days to promote fusion and myotube formation.
# FIG. 5, from left to right, depicts 5 columns with 5 different assays on myotube preparations differentiated from the myoblast cell preparations in the 12-well dishes. […] The second column reflects myotubes differentiated from a myoblast cell preparation from the second set of wells, which was exposed to 5 μM of 5-AZA in high serum medium for 6 hours. The third column reflects myotubes differentiated from a myoblast cell preparation from the third set of wells, which was exposed to 5 μM of 5-AZA in high serum medium for 24 hours. […] The immunostainings on the top row of FIG. 5 identifies lipid membranes (green color, WGA), nuclei (blue color, DAPI) and myotubes (red color, ACTA2). The gray-scale panels (middle row) show staining for nuclei only (DAPI). The gray-scale panels in the bottom row show staining for muscle fibers only (ACTA2).
# Briefly, satellite cells were isolated from muscle biopsies obtained from TD children during surgical procedures, sorted using FACS, plated in gelatin coated dishes, and grown into proliferation medium in 12-well plates.
# Aurora C kinase = Aurora C kinase (Homo sapiens, UniProt Q9UQB9); details: cited from earlier work
# C2C12 myoblasts = details: mouse-derived C2C12 muscle cell lines; cited from earlier work
# porcine satellite cells = details: 10 μM for 48 hours (Fan et al.); cited from earlier work
# Aurora C kinase, sequence (Q9UQB9 whole entry): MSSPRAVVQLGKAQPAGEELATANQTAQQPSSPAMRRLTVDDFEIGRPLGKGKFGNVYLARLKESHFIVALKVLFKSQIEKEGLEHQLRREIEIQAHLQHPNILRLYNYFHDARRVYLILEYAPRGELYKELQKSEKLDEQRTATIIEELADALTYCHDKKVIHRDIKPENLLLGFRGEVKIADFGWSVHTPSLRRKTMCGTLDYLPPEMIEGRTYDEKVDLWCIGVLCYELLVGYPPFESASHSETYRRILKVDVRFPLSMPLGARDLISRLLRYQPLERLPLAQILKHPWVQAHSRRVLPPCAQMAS
SMILES,"myoblast fusion and myotube formation ([1]; CP and TD myoblasts, FIG. 5 and FIG. 6, 5 μM)","cell death and polyploidy (nuclei) ([1]; CP myoblasts, FIG. 5, 5 μM)","morphological changes to the membranes of the cells (WGA staining) ([1]; CP myoblasts, FIG. 5, 5 μM, 3 days)","morphological changes to ACTA2-negative cells and nuclei ([1]; TD myoblasts, FIG. 6, 5 μM)",cell death over time ([1]; myoblasts),de-differentiation of myoblasts ([1]; myoblasts),IC50 (Aurora C kinase),"muscle-specific gene expression, myogenesis and myotube formation (C2C12 myoblasts)",cell viability (porcine satellite cells),myogenic response (porcine satellite cells)
"c1nc2nc(Nc3ccc(N4CCOCC4)cc3)nc(NC3CCCCC3)c2[nH]1 [Reversine, 2-(4-morpholinoanilino)-6-cyclohexylaminopurine]",shown to promote myoblast fusion and myotube formation,lower in number and suffer from polyploidy,causes morphological changes to the membranes of the cells,led to significant morphological changes to ACTA2-negative cells and nuclei in general,over time also leads to cell death,causes myoblasts to de-differentiate,20 nM,,,
"Nc1ncn([C@H]2C[C@H](O)[C@@H](CO)O2)c(=O)n1 [decitabine, 5-aza-2′-deoxycytidine]",,,,,,,,"promoted expression of muscle-specific genes, enhanced myogenesis and myotube formation",no change in cell viability,positive myogenic response
